From US12583826B2, “[(1,5-diphenyl-1H-1,2,4-triazol-3-yl)oxy]acetic acid derivatives and salts thereof, crop protection compositions comprising them, methods for producing them and use thereof as safeners” (Bayer Aktiengesellschaft, priority 2019, dated 2026)

What was measured:
[1] = system: summer barley (HORVS; cv. Montoya); assay: Relative action (efficacy code): reduction of damage by mesosulfuron-methyl on summer barley; format: in vivo; parameters: key: 0: no reduction in damage (appearance corresponding to the herbicide control); 1: slight reduction in damage; 2: distinct reduction in damage; 3: significant reduction in damage; 4: complete reduction in damage (appearance corresponding to the untreated control); conditions: then mesosulfuron-methyl 40-60 g/ha, visual, 9-13 days after application
Experimental: 2.4 Relative Action of Selected Compounds of the Invention Using the Example of Reduction of Damage by Mesosulfuron-Methyl on Summer Barley (HORVS) The seeds of the crop plants to be treated are laid out in sandy loam in plastic pots (diameter ˜4 cm), covered with soil and grown in a greenhouse under good conditions for germination and growth. The trial plants were treated at the early leaf stage (BBCH10—BBCH12). In the course of this, the inventive compounds of the general formula (I) formulated in the form of wettable powders (WP) were sprayed onto the above-ground parts of the plants as an aqueous suspension with a water application rate corresponding to 800 l/ha with addition of wetting agent (e.g. 0.2% Genapol-LRO or 0.2% Mero) in the specified dose. This was followed by the application of the herbicide. For this purpose, mesosulfuron-methyl, formulated in the form of water-dispersible granules (WG), was sprayed onto the above-ground parts of the plants in the form of an aqueous dispersion with a water application rate corresponding to 800 l/ha with addition of wetting agent (e.g. 0.2% Genapol-LRC) or 1 l/ha Biopower) in a dose of 40-60 g/ha. The dose of the herbicide was chosen here such that it causes visually apparent damage (min. 30%, max. 75%) compared to untreated crop plants at the evaluation time on a control group of crop plants without safener treatment that were included in the same trial. After application, the plants were cultivated under good growth conditions in a greenhouse. 9-13 days after application, the efficacy of the test compounds was assessed visually. For this purpose, the appearance of the plants treated with the test compound and herbicide was compared to the corresponding herbicide controls (without safener; with clearly visible damage) and the untreated controls (without damage). The damage-reducing effect of the test compounds was expressed here separately for 2 repeats in graded efficacy codes according to the following scheme: • 0: no reduction in damage (appearance corresponding to the herbicide control) • 1: slight reduction in damage • 2: distinct reduction in damage • 3: significant reduction in damage • 4: complete reduction in damage (appearance corresponding to the untreated control) The trials show clear efficacy of the substances of the invention with regard to the reduction in damage to the summer barley crop plant (HORVS; cv. Montoya) caused by the herbicide mesosulfuron-methyl: […]

[2] = system: summer wheat (TRZAS; cv. Triso); assay: Relative action (efficacy code): reduction of damage by mesosulfuron-methyl on summer wheat; format: in vivo; parameters: key: 0: no reduction in damage (appearance corresponding to the herbicide control); 1: slight reduction in damage; 2: distinct reduction in damage; 3: significant reduction in damage; 4: complete reduction in damage (appearance corresponding to the untreated control); conditions: then mesosulfuron-methyl 40-60 g/ha, visual, 9-13 days after application
Experimental: 2.3 Relative Action of Selected Compounds of the Invention Using the Example of Reduction of Damage by Mesosulfuron-Methyl on Summer Wheat (TRZAS) The seeds of the crop plants to be treated are laid out in sandy loam in plastic pots (diameter ˜4 cm), covered with soil and grown in a greenhouse under good conditions for germination and growth. The trial plants were treated at the early leaf stage (BBCH10—BBCH12). In the course of this, the inventive compounds of the general formula (I) formulated in the form of wettable powders (WP) were sprayed onto the above-ground parts of the plants as an aqueous suspension with a water application rate corresponding to 800 l/ha with addition of wetting agent (e.g. 0.2% Genapol-LRO or 0.2% Mero) in the specified dose. This was followed by the application of the herbicide. For this purpose, mesosulfuron-methyl, formulated in the form of water-dispersible granules (WG), was sprayed onto the above-ground parts of the plants in the form of an aqueous dispersion with a water application rate corresponding to 800 l/ha with addition of wetting agent (e.g. 0.2% Genapol-LRO or 1 l/ha Biopower) in a dose of 40-60 g/ha. The dose of the herbicide was chosen here such that it causes visually apparent damage (min. 30%, max. 75%) compared to untreated crop plants at the evaluation time on a control group of crop plants without safener treatment that were included in the same trial. After application, the plants were cultivated under good growth conditions in a greenhouse. 9-13 days after application, the efficacy of the test compounds was assessed visually. For this purpose, the appearance of the plants treated with the test compound and herbicide was compared to the corresponding herbicide controls (without safener; with clearly visible damage) and the untreated controls (without damage). The damage-reducing effect of the test compounds was expressed here in graded efficacy codes according to the following scheme: • 0: no reduction in damage (appearance corresponding to the herbicide control) • 1: slight reduction in damage • 2: distinct reduction in damage • 3: significant reduction in damage • 4: complete reduction in damage (appearance corresponding to the untreated control) The trials show clear efficacy of the substances of the invention with regard to the reduction in damage to the summer wheat crop plant (TRZAS; cv. Triso) caused by the herbicide mesosulfuron-methyl: […]

[3] = safener dose 500 (unit not given)
[4] = safener dose 100 (unit not given)

Structure (SMILES) | Efficacy of the safener (efficacy code) ([1]; safener 500 g/ha) | Efficacy of the safener (efficacy code) [2, 3] | Efficacy of the safener (efficacy code) ([1]; safener 100 g/ha) | Efficacy of the safener (efficacy code) [2, 4]
O=C(O)COc1nc(-c2ccc(Cl)cc2F)n(-c2c(F)cccc2F)n1 [I.48-43] | 2 | 2 |  | 
COC(=O)COc1nc(-c2c(F)cccc2F)n(-c2ccc(Cl)cc2F)n1 [I.55-49] | 2 | 2 | 2 | 2
O=C(O)COc1nc(-c2c(F)cccc2F)n(-c2c(F)cccc2F)n1 [I.57-43] | 2 | 2 |  | 
COC(=O)CCOC(=O)COc1nc(-c2ccc(Cl)cc2Cl)n(-c2ccc(Cl)cc2F)n1 [I.61-49, Methyl 3-(2-{[1-(4-chloro-2-fluorophenyl)-5-(2,4-dichlorophenyl)-1H-1,2,4-triazol-3-yl]oxy}acetoxy)propanoate] |  |  | 2 | 2
O=C(COc1nc(-c2ccc(F)cc2F)n(-c2ccc(Cl)cc2F)n1)OCC1CCOC1 (stereo not shown) [I.63-49] |  |  | 2 | 2
CCCCOC(=O)COc1nc(-c2ccc(F)cc2F)n(-c2ccc(Cl)cc2F)n1 [I.66-49] |  |  | 2 | 2
COCCOC(=O)COc1nc(-c2ccc(F)cc2F)n(-c2ccc(F)cc2Cl)n1 [I.67-48] |  |  | 2 | 2
COCCOC(=O)COc1nc(-c2ccc(F)cc2F)n(-c2ccc(Cl)cc2F)n1 [I.67-49] | 2 | 2 | 2 | 2
CCOC(=O)CCOC(=O)COc1nc(-c2ccc(F)cc2F)n(-c2ccc(Cl)cc2F)n1 [I.69-49] |  |  | 2 | 2
